# Where two headings read alike, the source gives them in different places.
# Key:
# [1] = test system: PC12 cells; experiment: cells; settings: Rattus norvegicus, PC-12, read-out: IC50 (50% inhibitory concentration) for dopamine toxicity to neurites
# [2] = test system: PC12 cells; settings: 3 hours, 8 wells
# [3] = test system: glioblastoma cell line (SNB-19); experiment: High-content screen of drug-induced apoptosis, SNB-19 cells; assay type: cell-based; settings: 26 h
# Method: Cell preparation. The cells chosen for this study were mouse connective tissue fibroblasts (L-929; ATCC CCL-1) and a highly invasive glioblastoma cell line (SNB-19; ATCC CRL-2219) (Welch et al., In Vitro Cell. Dev. Biol. 31:610, 1995). The day before treatment with an apoptosis inducing drug, 3500 cells were placed into each well of a 96-well plate and incubated overnight at 37° C. in a humidified 5% CO2 atmosphere. The following day, the culture medium was removed from each well and replaced with fresh medium containing various concentrations of paclitaxel (0–50 μM) from a 20 mM stock made in DMSO. The maximal concentration of DMSO used in these experiments was 0.25%. The cells were then incubated for 26 h as above. […]
# (§1) Image acquisition and analysis on the ArrayScan System. The fluorescence intensity of intracellular MITOTRACKER® Red, Hoechst 33342, and BODIPY® FL phallacidin was measured with the cell screening system as described supra. […]
# Calculations and output. A total of 50–250 cells were measured per image field. For each field of cells, the following calculations were performed: (1) The average nuclear area (μm^2) was calculated by dividing the total nuclear area in a field by the number of nuclei detected. (2) The average nuclear perimeter (μm) was calculated by dividing the sum of the perimeters of all nuclei in a field by the number of nuclei detected in that field. […]
# [4] = test system: mouse connective tissue fibroblasts (L-929); experiment: High-content screen of drug-induced apoptosis, L-929 cells; assay type: cell-based
# Method: Cell preparation. The cells chosen for this study were mouse connective tissue fibroblasts (L-929; ATCC CCL-1) and a highly invasive glioblastoma cell line (SNB-19; ATCC CRL-2219) (Welch et al., In Vitro Cell. Dev. Biol. 31:610, 1995). The day before treatment with an apoptosis inducing drug, 3500 cells were placed into each well of a 96-well plate and incubated overnight at 37° C. in a humidified 5% CO2 atmosphere. The following day, the culture medium was removed from each well and replaced with fresh medium containing various concentrations of paclitaxel (0–50 μM) from a 20 mM stock made in DMSO. The maximal concentration of DMSO used in these experiments was 0.25%. The cells were then incubated for 26 h as above. At the end of the paclitaxel treatment period, each well received fresh medium containing 750 nM MITOTRACKER® Red (Molecular Probes; Eugene, Oreg.) and 3 μg/ml Hoechst 33342 DNA-binding dye (Molecular Probes) and was incubated as above for 20 min. Each well on the plate was then washed with HBSS and fixed with 3.7% formaldehyde in HBSS for 15 min at room temperature. The formaldehyde was washed out with HBSS and the cells were permeabilized for 90 s with 0.5% (v/v) Triton X-100, washed with HBSS, incubated with 2 U ml^−1 BODIPY® FL phallacidin (Molecular Probes) for 30 min, and washed with HBSS. The wells on the plate were then filled with 200 μl HBSS, sealed, and the plate stored at 4° C. if Go necessary.
# as §1
# Calculations and output. A total of 50–250 cells were measured per image field. For each field of cells, the following calculations were performed: (1) The average nuclear area (μm^2) was calculated by dividing the total nuclear area in a field by the number of nuclei detected. (2) The average nuclear perimeter (μm) was calculated by dividing the sum of the perimeters of all nuclei in a field by the number of nuclei detected in that field. […] (3) The average nuclear brightness was calculated by dividing the integrated intensity of the entire field of nuclei by the number of nuclei in that field. […] (4) The average cellular brightness was calculated by dividing the integrated intensity of an entire field of cells stained with MITOTRACKER® dye by the number of nuclei in that field. […] (5) The average cellular brightness was also calculated by dividing the integrated intensity of an entire field of cells stained with BODIPY® FL phallacidin dye by the number of nuclei in that field. […]
# [5] = test system: NF-KB transcription factor; experiment: NF-KB cytoplasm to nucleus translocation screen (NucCyt Difference); assay type: cell-based; settings: human cell line, wells titrated with IL-1; FIG. 16
# Method: The distribution of the transcription factor is determined by labeling the nuclei with a DNA specific fluorophore like […] and the transcription factor with a specific fluorescent antibody. After autofocusing on the Hoechst labeled nuclei, an image of the nuclei is acquired in the cell-based screening system and used to create a mask by one of several optional thresholding methods, as described supra. The morphological descriptors of the regions defined by the mask are compared with the user defined parameters and valid nuclear masks are identified and used with the following method to extract transcription factor distributions. Each valid nuclear mask is eroded to define a slightly smaller nuclear region. The original nuclear mask is then dilated in two steps to define a ring shaped region around the nucleus, which represents a cytoplasmic region. The average antibody fluorescence in each of these two regions is determined, and the difference between these averages is defined as the NucCyt Difference. […] Using these two sampling regions, data on nuclear translocation can be automatically analyzed by the cell-based screening system on a cell by cell basis. […]
molecule,measurement,setting,value
NCCc1ccc(O)c(O)c1 [dopamine],IC50,[1],460 µM
same,Neurite Outgrowth Index (mean +/− standard deviation),[2]; dopamine 0.05 mM,43 +/− 4%
same,Neurite Outgrowth Index (mean +/− standard deviation),[2]; dopamine 0.1 mM,37 +/− 3%
same,Neurite Outgrowth Index (mean +/− standard deviation),[2]; dopamine 0.2 mM,37 +/− 3%
same,Neurite Outgrowth Index (mean +/− standard deviation),[2]; dopamine 0.4 mM,25 +/− 3%
same,Neurite Outgrowth Index (mean +/− standard deviation),[2]; dopamine 0.8 mM,17 +/− 2%
same,Neurite Outgrowth Index (mean +/− standard deviation),[2]; dopamine 1.6 mM,11 +/− 2%
CC(=O)O[C@H]1C(=O)[C@@]2(C)[C@H]([C@H](OC(=O)c3ccccc3)[C@]3(O)C[C@H](OC(=O)[C@H](O)[C@@H](NC(=O)c4ccccc4)c4ccccc4)C(C)=C1C3(C)C)[C@]1(OC(C)=O)CO[C@@H]1C[C@@H]2O [paclitaxel],"Concentration at which area, brightness and fragmentation of the nucleus and actin polymerization reached a maximum value",[3],10 nM
same,Concentration at which mitochondrial potential was minimal,[3],10 nM
same,Concentration giving maximal response in many parameters,"[4]; L-929 cells, 26 h",5 µM
same,Mitochondrial potential,"[4]; L-929 cells, all concentrations tested (0–50 μM)",did not show a sharp decrease in mitochondrial potential
same,Nuclear morphology,"[4]; L-929 cells, increasing amounts, 26 h, FIG. 24",caused nuclei to enlarge and fragment
same,Dose for maximal response in L-929 relative to SNB-19 cells,[4]; L-929 versus SNB-19,500 fold
"IL-1: a known inducer of the NF-KB transcription factor (protein, UniProt P01583 113-271, looked up) Interleukin-1 alpha: SAPFSFLSNVKYNFMRIIKYEFILNDALNQSIIRANDQYLTAAALHNLDEAVKFDMGAYKSSKDDAKITVILRISKTQLYVTAQDEDQPVLLKEMPEIPKTITGSETNLLFFWETHGTKNYFTSVAHPNLFIATKQDYWVCLAGGPPSITDFQILENQA",NucCyt Difference (NF-KB nuclear translocation) versus amount of agonist,[5],strongly correlated with the amount of agonist added to the wells

# Reference: patent publication US6986993B1, “System for cell-based screening” (Cellomics, Inc., priority 1999, dated 2006)
